In ChEMBL document CHEMBL1150845, “Two new constituents of Isodon excisus and their evaluation in an apoptosis inhibition assay” (J Nat Prod, 2001):
Values after ≈ are worked out from the molar mass of the structure shown.

The compounds below were run on U-937 (assay: Inhibition of etoposide-induced apoptosis in human U937 cells assessed as inhibition of caspase 3 induction after 7 hrs). Conditions: U-937, 7 h.
Format: functional, cell-based

Row | IC50 [µg/mL] | SMILES
1 | 52.4 (≈ 140 µM) | COC(=O)C[C@H](OC(=O)/C=C/c1ccc(O)c(O)c1)c1ccc(O)c(O)c1
2 | 10.2 (≈ 29.7 µM) | COc1cc(/C=C/C(=O)NC[C@@H](OC)c2ccc(O)cc2)ccc1O

Row | SMILES | IC50 [µg/mL]
3 | S=C(S)N1CCCC1 [PYRROLIDINE DITHIOCARBAMATE] | 8.3 (≈ 56.4 µM)
